From patent US6660742B2, “Compositions and methods of the use thereof achiral analogues of CC-1065 and the duocarmycins” (priority 2000, dated 2003)
Like-named read-outs stand apart in the source and are kept apart here.

Experiments:
[1] = system: SK-MEL-5; experiment: NCI screen, SK-MEL-5 (Melanoma)
Description: (§1) The compounds of this invention were also tested against the panel of 60 human cancer cell lines at the National Cancer Institute, Bethesda, Md. […] The cytrotoxicity studies were conducted using a 48 hour exposure, and measuring the optical density of sulforhodamide B-derived color.

[2] = system: SK-MEL-28; experiment: NCI screen, SK-MEL-28 (Melanoma)
Description: as §1

[3] = system: MOLT-4; experiment: NCI screen, MOLT-4 (Leukemia)
Description: as §1

[4] = system: RPMI-8226
[5] = system: MCF7; experiment: NCI screen, MCF7 (Breast Cancer)
Description: as §1

[6] = system: HS 578T; experiment: NCI screen, HS 578T (Breast Cancer); details: HS 578T, 48 hour exposure
Description: (§2) The compounds of this invention were also tested against the panel of 60 human cancer cell lines at the National Cancer Institute, Bethesda, Md. (44). The cytrotoxicity studies were conducted using a 48 hour exposure, and measuring the optical density of sulforhodamide B-derived color.

[7] = system: SK-OV-3; experiment: NCI screen, SK-OV-3 (Ovarian Cancer)
Description: as §1

[8] = system: HCT-15
[9] = system: SF-295; experiment: NCI screen, SF-295 (CNS Cancer)
Description: as §1

[10] = system: NCI-H226; experiment: NCI screen, NCI-H226 (Non-Small Cell Lung Cancer); format: cell-based, human
Description: as §1

[11] = system: EKVX; experiment: NCI screen, EKVX (Non-Small Cell Lung Cancer)
Description: as §1

[12] = system: NCI-H322M; details: NCI-H322M; Log10 Concentration −5.3; 48 hour exposure
[13] = system: TK-10; experiment: NCI screen, TK-10 (Renal Cancer); details: TK-10, 48 hour exposure
Description: as §1

[14] = system: HCC-2998; experiment: NCI screen, HCC-2998 (Colon Cancer)
Description: as §1

[15] = system: UACC-257; experiment: NCI screen, UACC-257 (Melanoma)
Description: as §1

[16] = system: U251; experiment: NCI screen, U251 (CNS Cancer); details: U251, 48 hour exposure
Description: as §1

[17] = system: OVCAR-8; experiment: NCI screen, OVCAR-8 (Ovarian Cancer); details: OVCAR-8, 48 hour exposure
Description: as §2

[18] = system: M14; experiment: NCI screen, M14 (Melanoma); details: M14, 48 hour exposure
Description: as §1

[19] = system: SF-539; experiment: NCI screen, SF-539 (CNS Cancer)
Description: as §1

[20] = system: UO-31; experiment: NCI screen, UO-31 (Renal Cancer); details: UO-31, 48 hour exposure
Description: as §1

[21] = system: MCF7/ADR-RES; experiment: NCI screen, MCF7/ADR-RES (Breast Cancer); format: cell-based, human; details: NCI/ADR-RES, 48 hour exposure
Description: as §1

[22] = system: HT29; experiment: NCI screen, HT29 (Colon Cancer)
Description: as §1

[23] = system: panel of 60 human cancer cell lines; experiment: NCI in-vitro cytotoxicity screen, whole panel; format: cell-based
[24] = Log10 Concentration −4.3, 48 hour exposure
[25] = Log10 Concentration −5.3, 48 hour exposure
[26] = Log10 Concentration −6.3, 48 hour exposure
[27] = Log10 Concentration −7.3, 48 hour exposure
[28] = Log10 Concentration −8.3, 48 hour exposure

## COC(=O)c1[nH]c2c(O)cc(NC(=O)c3cc4cc(OC)c(OC)c(OC)c4[nH]3)c(CCCl)c2c1C(=O)OC [Compound 22, Dimethyl 4-(2-chloroethyl)-7-hydroxy-5-(5,6,7-trimethoxyindole-2-carboxamido)indole-2,3-dicarboxylate]
[1]; [24]
  Percent Growth: −19%
[1]; [25]
  Percent Growth: 9%
[1]; [26]
  Percent Growth: −2%
[1]; [27]
  Percent Growth: 42%
[1]; [28]
  Percent Growth: 86%
[2]; 48 hour exposure
  TGI: 1.82E−06 Molar
[2]; [24]
  Percent Growth: −43%
[2]; [25]
  Percent Growth: −11%
[2]; [26]
  Percent Growth: 14%
[2]; [27]
  Percent Growth: 92%
[2]; [28]
  Percent Growth: 91%
[3]; 48 hour exposure
  TGI: >5.00E−05 Molar
[3]; [24]
  Percent Growth: 22%
[3]; [25]
  Percent Growth: 20%
[3]; [26]
  Percent Growth: 21%
[3]; [27]
  Percent Growth: 28%
[3]; [28]
  Percent Growth: 61%
[4]
  TGI: >5.00E−05 Molar
[5]; 48 hour exposure
  TGI: 6.31E−06 Molar
[5]; [24]
  Percent Growth: −51%
[5]; [25]
  Percent Growth: 6%
[5]; [26]
  Percent Growth: 6%
[5]; [27]
  Percent Growth: 39%
[5]; [28]
  Percent Growth: 70%
[6]
  TGI: 2.80E−07 Molar
[6]; Log10 Concentration −4.3
  Percent Growth: −54%
[6]; Log10 Concentration −5.3
  Percent Growth: −73%
[6]; Log10 Concentration −6.3
  Percent Growth: −41%
[6]; Log10 Concentration −7.3
  Percent Growth: 122%
[6]; Log10 Concentration −8.3
  Percent Growth: 130%
[7]; 48 hour exposure
  TGI: 8.81E−06 Molar
[7]; [24]
  Percent Growth: −54%
[7]; [25]
  Percent Growth: 17%
[7]; [26]
  Percent Growth: 35%
[7]; [27]
  Percent Growth: 90%
[7]; [28]
  Percent Growth: 103%
[8]
  TGI: 4.00E−06 Molar
[9]
  Percent Growth: 1%
[9]; SF-295, 48 hour exposure
  TGI: >5.00E−05 Molar
[9]; SF-295, Log10 Concentration −5.3, 48 hour exposure
  Percent Growth: 11%
[9]; SF-295, Log10 Concentration −6.3, 48 hour exposure
  Percent Growth: 14%
[9]; SF-295, Log10 Concentration −7.3, 48 hour exposure
  Percent Growth: 74%
[9]; SF-295, Log10 Concentration −8.3, 48 hour exposure
  Percent Growth: 106%
[10]; 48 hour exposure
  TGI: 2.21E−07 Molar
[10]; [24]
  Percent Growth: −76%
[10]; [25]
  Percent Growth: −55%
[10]; [26]
  Percent Growth: −38%
[10]; [27]
  Percent Growth: 69%
[10]; [28]
  Percent Growth: 104%
[11]; 48 hour exposure
  TGI: 5.14E−07 Molar
[11]; [24]
  Percent Growth: −83%
[11]; [25]
  Percent Growth: −62%
[11]; [26]
  Percent Growth: 1%
[11]; [27]
  Percent Growth: 102%
[11]; [28]
  Percent Growth: 102%
[12]
  Percent Growth: −8%
[13]
  TGI: >5.00E−05 Molar
[13]; Log10 Concentration −4.3
  Percent Growth: 8%
[13]; Log10 Concentration −5.3
  Percent Growth: 22%
[13]; Log10 Concentration −6.3
  Percent Growth: 31%
[13]; Log10 Concentration −7.3
  Percent Growth: 102%
[13]; Log10 Concentration −8.3
  Percent Growth: 100%
[14]; 48 hour exposure
  TGI: 2.89E−07 Molar
[14]; [24]
  Percent Growth: −88%
[14]; [25]
  Percent Growth: −31%
[14]; [26]
  Percent Growth: −27%
[14]; [27]
  Percent Growth: 85%
[14]; [28]
  Percent Growth: 91%
[15]; 48 hour exposure
  TGI: 2.25E−05 Molar
[15]; [24]
  Percent Growth: −10%
[15]; [25]
  Percent Growth: 19%
[15]; [26]
  Percent Growth: 6%
[15]; [27]
  Percent Growth: 99%
[15]; [28]
  Percent Growth: 101%
[16]
  TGI: 8.44E−06 Molar
[16]; Log10 Concentration −4.3
  Percent Growth: −40%
[16]; Log10 Concentration −5.3
  Percent Growth: 12%
[16]; Log10 Concentration −6.3
  Percent Growth: 11%
[16]; Log10 Concentration −7.3
  Percent Growth: 74%
[16]; Log10 Concentration −8.3
  Percent Growth: 89%
[17]
  TGI: 2.33E−07 Molar
[17]; Log10 Concentration −4.3
  Percent Growth: −64%
[17]; Log10 Concentration −5.3
  Percent Growth: −65%
[17]; Log10 Concentration −6.3
  Percent Growth: −32%
[17]; Log10 Concentration −7.3
  Percent Growth: 65%
[17]; Log10 Concentration −8.3
  Percent Growth: 86%
[18]
  TGI: 1.68E−07 Molar
[18]; Log10 Concentration −4.3
  Percent Growth: −92%
[18]; Log10 Concentration −5.3
  Percent Growth: −90%
[18]; Log10 Concentration −6.3
  Percent Growth: −69%
[18]; Log10 Concentration −7.3
  Percent Growth: 77%
[18]; Log10 Concentration −8.3
  Percent Growth: 105%
[19]; 48 hour exposure
  TGI: 2.07E−07 Molar
[19]; [24]
  Percent Growth: −90%
[19]; [25]
  Percent Growth: −84%
[19]; [26]
  Percent Growth: −47%
[19]; [27]
  Percent Growth: 75%
[19]; [28]
  Percent Growth: 89%
[20]; Log10 Concentration −4.3
  Percent Growth: 8%
[20]; Log10 Concentration −5.3
  Percent Growth: 5%
[20]; Log10 Concentration −6.3
  Percent Growth: −47%
[20]; Log10 Concentration −7.3
  Percent Growth: 91%
[20]; Log10 Concentration −8.3
  Percent Growth: 96%
[21]
  TGI: 8.17E−07 Molar
[21]; Log10 Concentration −4.3
  Percent Growth: −41%
[21]; Log10 Concentration −5.3
  Percent Growth: −58%
[21]; Log10 Concentration −6.3
  Percent Growth: 16%
[21]; Log10 Concentration −7.3
  Percent Growth: 77%
[21]; Log10 Concentration −8.3
  Percent Growth: 97%
[22]; 48 hour exposure
  TGI: 2.28E−07 Molar
[22]; [24]
  Percent Growth: −55%
[22]; [25]
  Percent Growth: −59%
[22]; [26]
  Percent Growth: −32%
[22]; [27]
  Percent Growth: 63%
[22]; [28]
  Percent Growth: 84%
[23]; 48 hour exposure
  range of activity: micromolar range
[23]; leukemia cells
  activity against leukemia cells: none of these compounds showed much activity
[23]; melanoma cells
  activity against melanoma cells: active
[23]; solid tumors cells
  activity against solid tumors cells: strong activity
